Values of other authors as cited in patent US7645462B2, “Acupoint patch” (3T Herbtech, Inc., priority 2002, dated 2010).

Key:
[1] = test system: arteria femoralis blood circulation; conditions: intravenous 50 mg/kg, sedated animals

SMILES | arteria femoralis blood circulation [1] | external blood vessel resistance [1] | dilation of separated major arteries (separated major arteries)
COc1cc(/C=C/C(=O)O)ccc1O.[Na] [ferulic acid sodium] | increased | reduced | 
COc1cc(/C=C/C(=O)O)ccc1O [ferulic acid] |  |  | can dilate
